The results in this text go back to ChEMBL document CHEMBL6087385, “Synthesis and biological evaluation of Ribo 7-N/O/S pyrimidine 9-deaza C-nucleoside analogs as new antiviral agents for inhibiting HCV RNA-dependent RNA polymerases” (Eur J Med Chem, 2024).

Assay [1] concerns Hepatitis C virus. Briefly: Antiviral activity against Hepatitis C virus infected in Ava5 cells assessed as inhibition of viral RNA replication incubated for 72 hrs by RT-PCR analysis. The conditions noted are these: for Activity: Hepacivirus hominis. It counts as functional, organism-based.
In assay [2] the test system is Hepatitis C virus. The assay is described as follows: Anti-viral activity against HCV genotype 1b infected in human Huh-luc cells. The format is functional, organism-based, Hepacivirus hominis.
In assay [3] the test system is Hepatitis C virus. Briefly: Antiviral activity against HCV genotype 1a infected in GLuc-1 cells. It counts as functional, organism-based, Hepacivirus hominis.
In assay [4] the test system is Hepatitis C virus. The assay is described as follows: Anti-viral activity against HCV genotype 2a infected in 2aLucNeo-25 cells. The format is functional, organism-based, Hepacivirus hominis.
Assay [5] deals with Hepatitis C virus. The assay is described as follows: Anti-viral activity against HCV genotype 2a infected in Lunet-CD81 cells. The format is functional, organism-based, Hepacivirus hominis.
In assay [6] the test system is Hepatitis C virus. The assay is described as follows: Antiviral activity against HCV infected in human Huh-7 cells assessed as inhibition of viral RNA replication incubated for 24 hrs by ribonuclease protection assay. The format is functional, organism-based, Hepacivirus hominis. The conditions noted are these: Huh-7, 24 h.

The source made the active and inactive calls. No cut-off for these calls is given here.

On to `C[C@@]1(O)[C@H](O)[C@@H](CO)O[C@H]1c1csc2c(N)ncnc12`, for which the result with Hepatitis C virus [1] was inactive. For the compound `C[C@@]1(O)[C@H](O)[C@@H](COP(=O)(O)OP(=O)(O)OP(=O)(O)O)O[C@H]1c1coc2c(N)ncnc12`, the IC50 in the assay on Hepatitis C virus [1] (Ava5, 72 h) is 5000 nM. `C[C@@]1(O)[C@H](O)[C@@H](CO)O[C@H]1c1c[nH]c2c(=O)[nH]c(N)nc12`: in the assay with Hepatitis C virus [1], the outcome was inactive. As to `C[C@@]1(O)[C@H](O)[C@@H](CO)O[C@H]1c1coc2c(=O)[nH]c(N)nc12`, the outcome in the assay on Hepatitis C virus [1] was inactive. `C[C@@]1(O)[C@H](O)[C@@H](CO)O[C@H]1c1coc2c(N)nc(N)nc12`: the outcome with Hepatitis C virus [1] was inactive. For the compound `C[C@@]1(O)[C@H](O)[C@@H](CO)O[C@H]1c1coc2c(=O)[nH]cnc12`, in the assay with Hepatitis C virus [1], the outcome was inactive. On the same count and under the same terms, the same measure for `C[C@@]1(O)[C@H](O)[C@@H](CO)O[C@H]1c1coc2c(=S)[nH]cnc12`: “inactive”. As to `C[C@@]1(O)[C@H](O)[C@@H](CO)O[C@H]1n1cnc2c(N)ncnc21`, the EC50 with Hepatitis C virus [2] came to 300 nM; in the assay on Hepatitis C virus [3], 230 nM; in the assay on Hepatitis C virus [4], 1430 nM; in the assay with Hepatitis C virus [5] it was 300 nM; in the assay on Hepatitis C virus [6], 300 nM.
